Source: patent US8597700B2, “Method of treating osteoporosis with extract of Dioscorea sp” (National Yang-Ming University, priority 2002, dated 2013)
Marks after values point to notes of the source that are not given here.

Tests used:
[1] = system: bone marrow cells of mice; test: Proliferation (MTT) and morphologic change of bone marrow cells in the presence of GM-CSF; type: cell-based
Procedure: (§1) Under sterile conditions, SPF grade C3H/HeN mice were sacrificed and their femoral bones were injected with a liquid culture of DMEM/F12 to flush out the bone marrow cells. The cells were filtered through sterile No. 53 nylon mesh. The single cell suspension so obtained was mixed with DMEM/F12 culture medium containing N2 to adjust to the proper concentration.
1×10^4 cells/well bone marrow cells of mice obtained in preparatory step 3 were seeded in each well of the 96-well microplate, cultured in DMEM/F 12 culture medium containing N2, and 4 ng/ml mGM-CSF. Methanol extracts of Dioscorea sp. with different concentrations were respectively added into the resultant cultured cells in the different wells. The resultant methanol extract containing cultured cells in different wells were then incubated in a 5% CO2 incubator at 37° C. for 14 days. The cells cultured in DMEM/F12 medium containing N2 and 20 ng/ml mGM-CSF is used as positive control. A MTT assay was performed. In this respect, 1 mg/ml MTT solution was added in each well so as to react with the cultured cells therein for 4 hours. MTT lysis buffer (20% SDS-50% DMF) was added in a n amount of 150 μl/well. The resultant mixture was allowed to react for 16 hours. The absorbance was measured at O.D. 570 nm.

[2] = system: bone marrow cells of C3H mice; test: Proliferation (MTT) and morphological changes of bone marrow cells in the presence of EGF; type: cell-based, C3H/HeN mice
Procedure: as §1
1×10^4 cells/well bone marrow cells of mice obtained in preparatory step 3 were seeded in a 96-well microplate containing DMEM/F12 culture medium with N2 and 10 ng/ml EGF and incubated in a 5% CO2 incubator at 37° C for 24 hrs. The extract and DHEA were added into different wells respectively. Wells containing pure culture medium into which no methanol extract and DHEA were added, and which were subjected to the same incubation procedure, were used as […]. In addition, for use as positive control, the same procedure as that for control was repeated except that 50 ng/ml EGF was used. The proliferation responses were measured by a MTT assay. In accordance with the MTT assay, each of the wells was added with 1 mg/ml MTT solution and, after 4 hours of reaction, MTT lysis buffer (20% SDS-50% DMF) was added thereinto in an amount of 150 μl/well. The resultant mixture was allowed to be reacted for 16 hours. The absorbance was measured at O.D. 570 nm.

[3] = system: osteoprogenitor cells; test: Proliferative response of osteoprogenitor cells of mice (MTT assay); type: cell-based, C3H/HeN mice; conditions: 0.01 and 0.1 μg/ml, 72 hours
Procedure: Under sterile conditions, femoral bones of the SPF grade of C3H/HeN mouse were obtained and injected with DMEM/F12. The bone marrow cells were flushed out and filtered through No. 53 sterile nylon mesh. The single cell suspension obtained was mixed with DMEM/F12 culture medium containing 15% FCS to adjust the concentration of the cells.
The cells were cultured in DMEM/F12 medium containing 15% FCS, 50 μg/ml ascorbic acid, 10 mM sodium β glycerophosphate and 10 nM dexamethasone in a T-flask for 6 days. The culture medium was renewed every 3 days. The cell concentration was 10^6 cells/cm^2. On the 6th day, the suspended cells and culture medium were drawn out. The adhering cell layer was washed with 1×PBS that had been warmed to room temperature, and then treated with 0.01% EDTA at 37° C. for 5 to 10 minutes. […]
The cells obtained in preparatory step 4 were dispersed using a 22 G gauge needle and suspended in DMEM/F12 medium containing 15% FCS, 50 μg/ml ascorbic acid, 10 mM sodium β-glycerophosphate and 10 nM dexamethazone to form a concentration of 4.5×10^4 cells/ml. […] 1 mg/ml MTT solution was added in each well and reacted for 4 hours MTT lysis buffer (20% SDS-50% DMF) was added in each well in the amount of 150 μl/well and reacted for 16 hours, and the absorbance was measured at O.D. 570 nm for the resultant cell suspension in each well.

C[C@]12CC[C@H](O)CC1=CC[C@@H]1[C@@H]2CC[C@]2(C)C(=O)CC[C@@H]12 [DHEA, Dehydroepiandrosterone]
Proliferation Index ([1]; 0.0001 μg/ml): 0.99 | Proliferation Index ([1]; 0.001 μg/ml): 1.15 | Proliferation Index ([1]; 0.01 μg/ml): 1.04 | Proliferation Index ([1]; 0.1 μg/ml): 1.13 | Proliferation Index ([1]; 1 μg/ml): 1.11 | Proliferation Index ([1]; 10 μg/ml): 1.19* | differentiation of bone marrow cells ([1]; 20-week old adult mouse bone marrow cells): enhancing cell differentiation | Proliferation Index ([2]; 0.0001 μg/ml): 0.99 | Proliferation Index ([2]; 0.001 μg/ml): 0.64 | Proliferation Index ([2]; 0.01 μg/ml): 0.65 | Proliferation Index ([2]; 0.1 μg/ml): 0.67 | Proliferation Index ([2]; 1 μg/ml): 0.70 | proliferation of the osteoprogenitor cells [3]: no effect
